Results from US5298522A, “6-chloro-5-fluoro-3-(2-thenoyl)-2-oxindole-1-carboxamide as an analgesic and anti-inflammatory agent while maintaining a normal urine protein/creatinine ratio” (Pfizer Inc., priority 1993, dated 1994).

Legend:
Proteinuria in patients = type: in vivo, human; settings: for induction of proteinuria: in some patients, dose not stated
[1] = Double blind, placebo controlled, crossover study, urine protein/creatinine ratio (Example 2); type: in vivo, human; settings: 80 mg/day, four weeks
Procedure: (§1) "Significant increase or decrease" for proteinuria effects is herein defined as an increase or decrease having statistical significance as determined by conducting an analysis of variance (ANOVA). First, a regression line is fitted to protein/creatinine (PC) ratio data for each patient and treatment period, and a slope is determined. The slope is then analyzed using an ANOVA to test for sequence, period and treatment effects, to determine if a difference exists between the control and treated groups.
(§2) Large amounts of creatinine and much smaller amounts of protein are normally excreted in the urine of normal human subjects, and a protein/creatinine ratio of approximately 0.05 to 0.1 is usually maintained.
Using a double blind, placebo controlled, crossover design, 6-chloro-5-fluoro-3-(2-thenoyl)-2-oxindole-1-carboxamide was administered to 25 patients at a dose level of 80 mg/day. Patients were randomized to receive either 6-chloro-5-fluoro-3-(2-thenoyl)-2-oxindole-1-carboxamide for four weeks followed by placebo for four weeks, or to receive placebo for four weeks followed by 6-chloro-5-fluoro-3-(2-thenoyl)-2-oxindole-1-carboxamide for four weeks. Patients could switch to the second leg of the treatment regimen earlier if symptoms became intolerable. […] Urine protein/creatinine ratio was determined at baseline and weekly during the study. […]

[2] = Double blind placebo-controlled study, urine protein/creatinine ratio (Example 1); type: in vivo, human
Procedure: as §1, §2
Using a double blind placebo-controlled design, 6-chloro-5-fluoro-3-(2-thenoyl)-2-oxindole-1-carboxamide was administered to 36 patients at dose levels of 40, 80, 160 and 320 mg, once daily. A single dose was given on day 1, followed by a seven day washout period, and then dosing was continued for a further 21 days. […] In addition, following the 2nd, 8th and 22nd dose; and 240 hours after the last dose, one 20 ml aliquot of urine, following the first am void but prior to the administration of study medication, was withdrawn for measurement of quantitative protein and creatinine.

[3] = system: carrageenin-induced rat-foot edema; assay: Carrageenin-induced rat-foot edema test; type: in vivo, rats (adult, male, albino); settings: by gavage, one hour before carrageenin
Source text: [Winter et al., Proc. Soc. Exp. Biol. Med., 111, 544, (1963)].
Unanesthetized, adult, male, albino rats of 150 g to 190 g body weight are numbered, weighed, and an ink mark placed on the right lateral malleolus. Each paw is immersed in mercury exactly to the ink mark. The mercury is contained in a glass cylinder, connected to a Statham Pressure Transducer. The output from the transducer is fed through a control unit to a microvoltameter. The volume of mercury displaced by the immersed paw is read. The drug is given by gavage. One hour after drug administration, edema is induced by injection of 0.05 ml of 1% solution of carrageenin into the plantar tissue of the marked paws. Immediately thereafter, the volume of the injected foot is measured. The increase in foot volume 3 hours after the injection of carrageenin constitutes the individual inflammatory response.

[4] = system: PBQ-induced abdominal stretching in mice; assay: Blockage of abdominal stretching induced by 2-phenyl-1,4-benzoquinone (PBQ); type: in vivo, mice (Carworth males, albino CF-1 strain); settings: oral, one hour before PBQ 2 mg/kg intraperitoneally
Procedure: The method is based on that of Siegmund et al., Proc. Soc. Exp. Biol. Med., 95, 729-731, (1957), as adapted for high throughput [see further Milne and Twomey, Agents and Actions, 10, 31-37, (1980)]. The mice used in these experiments are Carworth males, albino CF-1 strain, weighing 18-20 g. All mice are fasted overnight prior to drug administration and testing.
6-Chloro-5-fluoro-3-(2-thenoyl)-2-oxindole-1-carboxamide is dissolved or suspended in a vehicle consisting of ethanol (5%), emulphor 620 (a mixture of polyoxyethylene fatty acid esters, 5%) and saline (90%). This vehicle also served as control. Doses are on a logarithmic scale (i.e., . . . 0.32, 1.0, 3.2, […] . . . mg/kg), and are calculated from weights of the salt when applicable. The route of administration is oral, with concentrations varied to allow a constant dosage of 10 ml/kg of mouse. The aforesaid method of Milne and Towney is used to determine efficacy and potency. […] Individual mice are then immediately placed in a warmed lucite chamber, and, starting five minutes after PBQ administration, the number of abdominal constrictions during the subsequent 5 minutes are recorded. The degree of analgesic protection, Maximal Possible Effect (% MPE), is calculated on the basis of suppression of abdominal constriction relative to counts from concurrent control animals run on the same day. […]

| change in urine protein/creatinine ratio during treatment [1] | urine protein/creatinine ratio, drug vs placebo treatment ([1]; crossover) | proteinuria ([2]; 320 mg/day) | urine protein/creatinine ratio, drug treated groups vs placebo treated groups ([2]; 40, 80, 160 and 320 mg once daily, single dose, seven day washout, then further 21 days) | Structure (SMILES) | induction of proteinuria (Proteinuria in patients) | anti-inflammatory activity [3] | analgesic activity [4] | patients with proteinuria (Proteinuria in patients; 80 mg/day, within four weeks) | course of proteinuria (Proteinuria in patients; 80 mg/day, upon discontinuation of medication) |
| --- | --- | --- | --- | --- | --- | --- | --- | --- | --- |
| No significant changes | no significant differences | does not cause proteinuria | no significant differences | NC(=O)N1C(=O)C(C(=O)c2cccs2)c2cc(F)c(Cl)cc21 (stereo not shown) [6-Chloro-5-fluoro-3-(2-thenoyl)-2-oxindole-1-carboxamide] | does not induce proteinuria | possesses anti-inflammatory activity | possess analgesic activity | – | – |
| – | – | – | – | NC(=O)N1C(=O)C(C(=O)c2cccs2)c2cc(Cl)ccc21 (stereo not shown) [5-chloro-3-(2-thenoyl)-2-oxindole-1-carboxamide] | induce non-progressive, reversible proteinuria in some patients | – | – | 10-15% | non-progressive and reversible upon discontinuation of medication |
